# Assay results published in PubChem BioAssay AID248 (DTP/NCI, 2004).
# “And” between values parts separate entries of the source, which are not always exact repeats. Equal values may be shown once. Inconclusive results and toxic doses are left out.
# Test system: L1210 leukemia ip in BDF1 mice, survival T/C
# Experiment: NCI In Vivo Anticancer Drug Screen. Data for tumor model L1210 Leukemia (intraperitoneal) in B6D2F1 (BDF1) mice
# Conditions: endpoint: mean survival time, higher = longer survival
# In short: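 Read-out is survival time, reported as the treated-group measurement over the vehicle-control measurement.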
# [1] = dose: 100.0 mg/kg/injection, schedule: Q04DX002 (ip), vehicle: Klucel (hydroxypropylcellulose) (HPC)
# [2] = dose: 200.0 mg/kg/injection, schedule: Q04DX002 (ip), vehicle: Klucel (hydroxypropylcellulose) (HPC)
# [3] = dose: 100.0 mg/kg/injection, schedule: Q01DX009 (ip), vehicle: saline
# [4] = dose: 200.0 mg/kg/injection, schedule: Q01DX009 (ip), vehicle: saline
# [5] = dose: 400.0 mg/kg/injection, schedule: Q01DX009 (ip), vehicle: saline
# [6] = dose: 100.0 mg/kg/injection, schedule: Q01DX009 (ip), vehicle: saline with Tween-80
# [7] = dose: 200.0 mg/kg/injection, schedule: Q01DX009 (ip), vehicle: saline with Tween-80
# [8] = dose: 100.0 mg/kg/injection, schedule: Q01DX001 (ip), vehicle: saline with Tween-80
# [9] = dose: 100.0 mg/kg/injection, schedule: Q04DX003 (ip), vehicle: saline with Tween-80
# [10] = dose: 200.0 mg/kg/injection, schedule: Q01DX001 (ip), vehicle: saline with Tween-80
# [11] = dose: 100.0 mg/kg/injection, schedule: Q04DX003 (ip), vehicle: saline
# [12] = dose: 100.0 mg/kg/injection, schedule: Q01DX001 (ip), vehicle: saline
# [13] = dose: 200.0 mg/kg/injection, schedule: Q01DX001 (ip), vehicle: saline
# [14] = dose: 400.0 mg/kg/injection, schedule: Q01DX001 (ip), vehicle: saline
# [15] = dose: 400.0 mg/kg/injection, schedule: Q04DX003 (ip), vehicle: Klucel (hydroxypropylcellulose) (HPC)
# [16] = dose: 100.0 mg/kg/injection, schedule: Q01DX001 (ip), vehicle: carboxymethylcellulose (CMC)
# [17] = dose: 200.0 mg/kg/injection, schedule: Q01DX001 (ip), vehicle: carboxymethylcellulose (CMC)
smiles,measurement,setting,value
COc1ccc(N=C2C(=O)Nc3ccc(Br)cc32)cc1,T/C,[1],107 % of control
same,T/C,[2],96 % of control
same,T/C,"dose: 400.0 mg/kg/injection, schedule: Q04DX002 (ip), vehicle: Klucel (hydroxypropylcellulose) (HPC)",107 % of control
COC1=CCC2C(=O)OC(=O)C2C1 (stereo not drawn),T/C,"dose: 25.0 mg/kg/injection, schedule: Q01DX009 (ip), vehicle: saline",90 % of control
same,T/C,"dose: 50.0 mg/kg/injection, schedule: Q01DX009 (ip), vehicle: saline",94 % of control
same,T/C,[3],100 % of control
same,T/C,[4],109 % of control
same,T/C,[5],100 % of control
CC(=O)N(C)N=O,T/C,"dose: 10.0 mg/kg/injection, schedule: Q01DX001 (ip), vehicle: saline",115 % of control
same,T/C,"dose: 20.0 mg/kg/injection, schedule: Q01DX001 (ip), vehicle: saline",115 % of control
same,T/C,"dose: 30.0 mg/kg/injection, schedule: Q01DX001 (ip), vehicle: saline",115 % of control
same,T/C,"dose: 40.0 mg/kg/injection, schedule: Q01DX001 (ip), vehicle: saline",114 % of control
CNc1ncnc(NC)c1[N+](=O)[O-],T/C,[1],101 % of control
same,T/C,[2],90 % of control
O=c1[nH]c(=S)[nH]c(Cc2ccccc2)c1CCO,T/C,[6],96 % of control
same,T/C,[7],108 % of control
same,T/C,"dose: 400.0 mg/kg/injection, schedule: Q01DX009 (ip), vehicle: saline with Tween-80",96 % of control
O=C(c1ccccc1[N+](=O)[O-])C(Br)C(Br)c1cccc2ccccc12 (stereo not drawn),T/C,"dose: 50.0 mg/kg/injection, schedule: Q01DX009 (ip), vehicle: saline with Tween-80",96 % of control and 91 % of control
same,T/C,[8],96 % of control
same,T/C,[6],93 % of control and 94 % of control
same,T/C,"dose: 100.0 mg/kg/injection, schedule: Q04DX002 (ip), vehicle: saline with Tween-80",93 % of control
same,T/C,[9],90 % of control
same,T/C,[10],96 % of control
same,T/C,[7],86 % of control and 89 % of control
same,T/C,"dose: 200.0 mg/kg/injection, schedule: Q04DX002 (ip), vehicle: saline with Tween-80",88 % of control and 90 % of control
same,T/C,"dose: 200.0 mg/kg/injection, schedule: Q04DX003 (ip), vehicle: saline with Tween-80",91 % of control
same,T/C,"dose: 400.0 mg/kg/injection, schedule: Q01DX001 (ip), vehicle: saline with Tween-80",100 % of control
same,T/C,"dose: 400.0 mg/kg/injection, schedule: Q04DX003 (ip), vehicle: saline with Tween-80",88 % of control
O=P(c1c(F)c(F)c(F)c(F)c1F)(c1c(F)c(F)c(F)c(F)c1F)c1c(F)c(F)c(F)c(F)c1F,T/C,[8],91 % of control
same,T/C,[10],91 % of control
CC1CN(Cc2cccc(C#N)c2)CC(C)N1 (stereo not drawn),T/C,"dose: 25.0 mg/kg/injection, schedule: Q01DX009 (ip), vehicle: water",93 % of control
same,T/C,"dose: 50.0 mg/kg/injection, schedule: Q01DX009 (ip), vehicle: water",101 % of control
same,T/C,"dose: 100.0 mg/kg/injection, schedule: Q01DX009 (ip), vehicle: water",100 % of control
C=C1C(=O)OC2CC(C)CCC/C(CO)=C/C(OC(=O)/C(=C/CO)CO)C12 (stereo not drawn),T/C,"dose: 3.75 mg/kg/injection, schedule: Q04DX003 (ip), vehicle: saline",89 % of control
same,T/C,"dose: 4.9 mg/kg/injection, schedule: Q01DX009 (ip), vehicle: acetone",93 % of control
same,T/C,"dose: 7.5 mg/kg/injection, schedule: Q01DX001 (ip), vehicle: acetone",97 % of control
same,T/C,"dose: 7.5 mg/kg/injection, schedule: Q01DX009 (ip), vehicle: acetone",98 % of control
same,T/C,"dose: 7.5 mg/kg/injection, schedule: Q04DX003 (ip), vehicle: saline",100 % of control
same,T/C,"dose: 11.0 mg/kg/injection, schedule: Q01DX009 (ip), vehicle: acetone",93 % of control
same,T/C,"dose: 15.0 mg/kg/injection, schedule: Q01DX001 (ip), vehicle: acetone",103 % of control
same,T/C,"dose: 15.0 mg/kg/injection, schedule: Q04DX003 (ip), vehicle: saline",99 % of control
COCCCn1nnc2ccccc2c1=O,T/C,[11],98 % of control
same,T/C,"dose: 200.0 mg/kg/injection, schedule: Q04DX003 (ip), vehicle: saline",93 % of control
same,T/C,"dose: 400.0 mg/kg/injection, schedule: Q04DX003 (ip), vehicle: saline",100 % of control
CCCCC(=C/C(C)(C)C)/C(=C/C(C)(C)C)CCCC,T/C,"dose: 150.0 mg/kg/injection, schedule: Q01DX009 (ip), vehicle: saline",88 % of control
same,T/C,"dose: 300.0 mg/kg/injection, schedule: Q01DX009 (ip), vehicle: saline",88 % of control
CCCN(CCC)CP(=O)(CN(CCC)CCC)CN(CCC)CCC,T/C,"dose: 25.0 mg/kg/injection, schedule: Q04DX003 (ip), vehicle: saline with Tween-80",92 % of control
same,T/C,"dose: 50.0 mg/kg/injection, schedule: Q04DX003 (ip), vehicle: saline with Tween-80",90 % of control
same,T/C,[9],93 % of control
CCCCCCCCCCCCCCC[As](=O)(O)CCCCCCCCCCCCCCC,T/C,"dose: 50.0 mg/kg/injection, schedule: Q01DX001 (ip), vehicle: saline",97 % of control
same,T/C,[12],95 % of control
same,T/C,[13],95 % of control
same,T/C,[14],95 % of control
Nc1nc(SCc2ccccn2)c2[nH]cnc2n1,T/C,"dose: 45.0 mg/kg/injection, schedule: Q04DX003 (ip), vehicle: Klucel (hydroxypropylcellulose) (HPC)",121 % of control
same,T/C,"dose: 65.0 mg/kg/injection, schedule: Q04DX003 (ip), vehicle: Klucel (hydroxypropylcellulose) (HPC)",124 % of control
same,T/C,[15],155 % of control
CCCCCCCNC,T/C,"dose: 50.0 mg/kg/injection, schedule: Q01DX001 (ip), vehicle: carboxymethylcellulose (CMC)",99 % of control
same,T/C,[16],99 % of control
same,T/C,[17],96 % of control
COCCNP(=O)(OC(C)C)OC(C)C,T/C,[3],97 % of control
same,T/C,[4],92 % of control
same,T/C,[5],94 % of control
CN(C)c1ccc(N=Nc2cc(Cl)cc(Cl)c2)cc1,T/C,[16],89 % of control
same,T/C,[17],91 % of control
Cc1coc2c1CC1(C)C(CCC(O)C1C)C2 (stereo not drawn),T/C,[12],97 % of control
same,T/C,[13],100 % of control
same,T/C,[14],103 % of control
CN(CCO)N=Nc1ccccc1Cl,T/C,"dose: 25.0 mg/kg/injection, schedule: Q01DX009 (ip), vehicle: other",101 % of control
same,T/C,"dose: 50.0 mg/kg/injection, schedule: Q01DX009 (ip), vehicle: other",100 % of control
same,T/C,"dose: 100.0 mg/kg/injection, schedule: Q01DX009 (ip), vehicle: other",94 % of control
Cc1cc(C)c(NC(=O)Nc2ccc(Cl)cc2)c(C)c1,T/C,"dose: 100.0 mg/kg/injection, schedule: Q01DX009 (ip), vehicle: Klucel (hydroxypropylcellulose) (HPC)",92 % of control
same,T/C,"dose: 100.0 mg/kg/injection, schedule: Q04DX003 (ip), vehicle: Klucel (hydroxypropylcellulose) (HPC)",100 % of control
same,T/C,"dose: 200.0 mg/kg/injection, schedule: Q01DX009 (ip), vehicle: Klucel (hydroxypropylcellulose) (HPC)",92 % of control
same,T/C,"dose: 200.0 mg/kg/injection, schedule: Q04DX003 (ip), vehicle: Klucel (hydroxypropylcellulose) (HPC)",97 % of control
same,T/C,"dose: 400.0 mg/kg/injection, schedule: Q01DX009 (ip), vehicle: Klucel (hydroxypropylcellulose) (HPC)",96 % of control
same,T/C,[15],97 % of control
CC(=O)[O][Hg][c]1c(N)c(C)cc(C)c1F,T/C,"dose: 2.5 mg/kg/injection, schedule: Q01DX009 (ip), vehicle: saline",91 % of control
same,T/C,"dose: 5.0 mg/kg/injection, schedule: Q01DX009 (ip), vehicle: saline",95 % of control
same,T/C,"dose: 6.25 mg/kg/injection, schedule: Q04DX003 (ip), vehicle: saline",101 % of control
same,T/C,"dose: 10.0 mg/kg/injection, schedule: Q01DX009 (ip), vehicle: saline",98 % of control
same,T/C,"dose: 12.5 mg/kg/injection, schedule: Q04DX003 (ip), vehicle: saline",91 % of control
same,T/C,"dose: 25.0 mg/kg/injection, schedule: Q04DX003 (ip), vehicle: saline",94 % of control and 100 % of control
same,T/C,[11],95 % of control
